Measurements published in patent US7692002B2, “Metal complexes having vitamin B12 as a ligand” (University of Zurich, priority 2004, dated 2010).

System: mouse melanoma cell line (B16F1)
Test: Cytotoxicity tests with a mouse melanoma cell line (B16F1)
Format: cell-based
Conditions: B16F1 mouse melanoma cells, concentration of 100 μM

## Cyanocobalamin [vitamin B12]
  proliferation inhibition: no effect at all
